Consider 11 compounds from article PMC10385977, “On the Road towards Small-Molecule Programmed Cell Death 1 Ligand 1 Positron Emission Tomography Tracers: A Ligand-Based Drug Design Approach” (Pharmaceuticals, 2023).

As a reminder, the IC50 is the concentration at which inhibition is half-maximal. For orientation: chromatographic logD means lipophilicity estimated from chromatographic retention. A lower chromatographic logD goes with a more hydrophilic compound.

For data set [1], the target named is T1, human PD-L1 (Homo sapiens, UniProt Q9NZQ7).
T1 construct: purchased Cisbio Bioassays SAS 64PD1PEG
T1 sequence (Q9NZQ7 19-238 limits assumed): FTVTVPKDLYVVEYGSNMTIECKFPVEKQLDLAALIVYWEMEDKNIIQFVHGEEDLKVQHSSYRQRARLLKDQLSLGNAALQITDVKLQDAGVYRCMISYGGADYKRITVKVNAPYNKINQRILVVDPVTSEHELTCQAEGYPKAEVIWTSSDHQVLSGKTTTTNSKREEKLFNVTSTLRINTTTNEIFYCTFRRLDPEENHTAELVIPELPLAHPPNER
Details: method as in doi:10.14205/2309-4435.2013.01.01.6.

The target in data set [2] is T1, human PD-L1. Description: HTRF PD-1/PD-L1 Binding Assay Kit (Cisbio). The settings on record: for BEI (binding efficiency index): BEI = −logIC50/(molecular weight/1000); for LE (ligand efficiency): LE = −1.4(logIC50)/Nheavy atoms; for LELP (ligand-efficiency-dependent lipophilicity efficiency): LELP = µHPLC logPOWpH 7.4/LE; for LLE (ligand lipophilicity efficiency): LLE = −logIC50 − µHPLC logPOWpH 7.4.

Data set [3] in a line: In-solution stability in 1:1 DMSO/HEPES buffer (HPLC). The following applies: for remained intact: within the 20-day time period; for decomposition of the parent compound: 20 days.
Data set [4] is described as follows: HPLC lipophilicity measurement (µHPLC logPOWpH 7.4, logD). Format: physicochemical. The settings on record: HPLC on an apHera column (retention time method); pH 7.4, HPLC method, mean ± SD. Here is the method: An equilibration time of 2 min before measurements was set. Solvent “A” consisted of methanol (Merck KGaA, Darmstadt, Germany) and solvent “B” of 10 mM sodium phosphate buffer pH 7.4. […] The measurements of lipophilicity of precursors and products were performed according to the HPLC method of Donovan and Pescatore and Vraka et al.. […] Three logP values of the reference substances were taken from the literature, resulting in a mean logP value of the analyte ( μHPLC logPOWpH 7.4analyte) . Furthermore, the values were compared to calculated logP (clogP) and topological polar surface area (tPSA) values from ChemDraw 20.1 (PerkinElmer, Inc., Waltham, MA, USA) as well as clogDpH7.4 values from MarvinSketch 22.13 (ChemAxon Ltd., Budapest, Hungary).

A further data set concerns hPD-L1. Also noted: method as in earlier work. The settings on record: HTRF assay; cited from earlier work. (In general: In TR-FRET formats the signal depends on donor and acceptor labels being close together.)
Data set [5] is described as follows: Metabolic stability in human liver microsomes. It is filed as in vitro ADME. The following applies: incubation for 40 min. Here is the method: Metabolic stability was assessed using pooled, mixed gender human liver microsomes (HLMs) (Corning, Corning, NY, USA) according to the supplied protocol. In short, 15 µL of HLM (20 mg/mL), 15 µL of NADPH regenerating system solution A (Corning, Corning, NY, USA), 3 µL of solution B (Corning, Corning, NY, USA) and 257 µL of a 1:10 dilution of 10× PBS concentrate (MORPHISTO, Offenbach am Main, Germany) were pre-incubated at 37 °C for 10 min. Aliquots were drawn 0, 10, 20, 30 and 40 min after addition of 10 µL radiotracer, subsequently quenched with the same amount of MeCN, centrifuged for 4 min at 21,500× g and analyzed by HPLC setup 3.
(Liver microsomes are a subcellular fraction often used to study metabolism.)

Like-named read-outs stand apart in the source and are kept apart here. Positions of bridges follow the written chain, without caps; N, C: chain ends. Non-standard residues stand in square brackets, D forms with d. Residues, ends and D or L forms follow the SMILES beside them. NMeNle = CCCC[C@H](NC)C(=O)O; NMeA = CN[C@@H](C)C(=O)O; Sar = CNCC(=O)O

In the case of `CCCC[C@H]1C(=O)N(C)[C@@H](CCCC)C(=O)N[C@@H](CCCNC(=N)N)C(=O)N[C@H](C(=O)NCC(N)=O)CSCC(=O)N[C@@H](Cc2ccccc2)C(=O)N(C)[C@@H](C)C(=O)N[C@@H](CC(N)=O)C(=O)N2CCC[C@H]2C(=O)N[C@@H](Cc2c[nH]cn2)C(=O)N[C@@H](CC(C)C)C(=O)N(C)CC(=O)N[C@@H](Cc2c[nH]c3ccccc23)C(=O)N[C@@H](CO)C(=O)N[C@@H](Cc2c[nH]c3ccccc23)C(=O)N1C` [Inhibitor 3, reference compound] ({CH2CO}-F[NMeA]NPHL[Sar]WSW[NMeNle][NMeNle]RCG-NH2; thioether N-14; N-terminus and C-terminus assumed), the IC50 on human PD-L1 [1] (read-out: IC50 (Cisbio); HTRF assay, vendor value; cited from earlier work) was 146 nM; on human PD-L1 [2] it was 113 ± 45 nM.
Take `COc1cc(OCc2cccc(-c3ccccc3)c2C)cc(OC)c1CN1CCCC[C@H]1C(=O)O` [Substance 1, (S)-1-(2,6-dimethoxy-4-((2-methyl-[1,1′-biphenyl]-3-yl)methoxy)benzyl)piperidine-2-carboxylic acid, reference compound]: the remained intact result in data set [3] is given as “over 85%”. Further, the chromatographic logD in data set [4] was found to be 3.16 ± 0.16. For the same compound, in the data set with hPD-L1, the IC50 was […].
Take `COC(=O)[C@@H]1CCCCN1Cc1c(OC)cc(OCc2cccc(-c3ccccc3)c2C)cc1OC` [Substance 1a, Methyl (S)-1-(2,6-Dimethoxy-4-((2-methyl-[1,1′-biphenyl]-3-yl)methoxy)benzyl)piperidine-2-carboxylate]: the remained intact entry in data set [3] was “over 85%”. Moreover, the chromatographic logD in data set [4] was 4.9 ± 0.27. On human PD-L1 [2], the “BEI (binding efficiency index)” value is 10.7, the “LE (ligand efficiency)” value worked out at 0.20 kcal/mol/Heavy Atom, the “LELP (ligand-efficiency-dependent lipophilicity efficiency)” value (“LELP” for short) is 24.0 and the “LLE (ligand lipophilicity efficiency)” value was 0.3. Besides, the IC50 at human PD-L1 [2] (read-out: IC50 (This Work)) was found to be 5760 ± 613 nM.
On to `COc1cc(OCc2cccc(-c3ccccc3)c2C)cc(OC)c1CN1CCCC[C@H]1C(=O)OCCF` [Substance 1b, 2-Fluoroethyl (S)-1-(2,6-Dimethoxy-4-((2-methyl-[1,1′-biphenyl]-3-yl)methoxy)benzyl)piperidine-2-carboxylate], for which, in data set [3], the remained intact entry was “over 85%”. The chromatographic logD in data set [4] stood at 5.02 ± 0.28. Further, on human PD-L1 [2], the “BEI (binding efficiency index)” value is listed as 11.4, the “LE (ligand efficiency)” value was found to be 0.22 kcal/mol/Heavy Atom, the “LELP” value is given as 22.9 and the “LLE (ligand lipophilicity efficiency)” value turned out to be 0.9. Also, on human PD-L1 [2] (read-out: IC50 (This Work)), the IC50 amounted to 1440 ± 144 nM.
As to `COc1nc(OCc2cccc(-c3ccccc3)c2C)ccc1CNCCNC(C)=O` [Substance 2, N-(2-(((2-methoxy-6-((2-methyl-[1,1′-biphenyl]-3-yl)methoxy)pyridin-3-yl)methyl)amino)ethyl)acetamide, reference compound], the “decomposition of the parent compound” value in data set [3] was “less than 2%”. This compound registered a chromatographic logD in data set [4] of 3.88 ± 0.12.
Take `COc1nc(OCc2cccc(-c3ccccc3)c2C)ccc1CN(C)CCNC(C)=O` [Substance 2a, N-(2-(((2-Methoxy-6-((2-methyl-[1,1′-biphenyl]-3-yl)methoxy)pyridin-3-yl)methyl)(methyl)amino)ethyl)acetamide]: the “decomposition of the parent compound” value in data set [3] is given as “less than 2%”. The same compound came in with a chromatographic logD in data set [4] of 4.13 ± 0.16. Besides, at human PD-L1 [2], the “BEI (binding efficiency index)” value was 14.7, the “LE (ligand efficiency)” value was 0.28 kcal/mol/Heavy Atom, the “LELP” value is listed as 14.8 and the “LLE (ligand lipophilicity efficiency)” value is listed as 2.2. Besides, the “fold reduced affinity compared to lead structure 2” value at human PD-L1 [2] (ratio of HTRF IC50 values) stood at 4.3 fold. Also, at human PD-L1 [2] (read-out: IC50 (This Work)), the IC50 came out at 430 ± 62 nM.
With `COc1nc(OCc2cccc(-c3ccccc3)c2C)ccc1CNCCN(C)C(C)=O` [Substance 2b, N-(2-(((2-Methoxy-6-((2-methyl-[1,1′-biphenyl]-3-yl)methoxy)pyridin-3-yl)methyl)amino)ethyl)-N-methylacetamide], the remained intact entry in data set [3] is given as “over 85%”. The compound also came in with a chromatographic logD in data set [4] of 3.97 ± 0.13. Besides, at human PD-L1 [2], the “BEI (binding efficiency index)” value was 14.5, the “LE (ligand efficiency)” value amounted to 0.27 kcal/mol/Heavy Atom, the “LELP” value came out at 14.4 and the “LLE (ligand lipophilicity efficiency)” value is reported as 2.3. In addition, the IC50 at human PD-L1 [2] (read-out: IC50 (This Work)) worked out at 524 ± 67 nM.
Regarding `COc1nc(OCc2cccc(-c3ccccc3)c2C)ccc1CN(C)CCN(C)C(C)=O` [Substance 2c, N-(2-(((2-Methoxy-6-((2-methyl-[1,1′-biphenyl]-3-yl)methoxy)pyridin-3-yl)methyl)(methyl)amino)ethyl)-N-methylacetamide], the “decomposition of the parent compound” value in data set [3] is listed as “less than 2%”. In addition, the chromatographic logD in data set [4] is 4.28 ± 0.18. Also, at human PD-L1 [2], the “BEI (binding efficiency index)” value is 13.1, the “LE (ligand efficiency)” value was found to be 0.25 kcal/mol/Heavy Atom, the “LELP” value is on record as 17.1 and the “LLE (ligand lipophilicity efficiency)” value is 1.6. Moreover, the IC50 at human PD-L1 [2] (read-out: IC50 (This Work)) was found to be 1310 ± 185 nM.
As to `COc1nc(OCc2cccc(-c3ccccc3)c2C)ccc1CN(CCNC(C)=O)C(=O)OCCF` [Substance 2d, 2-Fluoroethyl (2-Acetamidoethyl)((2-methoxy-6-((2-methyl-[1,1′-biphenyl]-3-yl)methoxy)pyridin-3-yl)methyl)carbamate], the “decomposition of the parent compound” value in data set [3] is listed as “less than 2%”. The compound also yielded a chromatographic logD in data set [4] of 4.23 ± 0.17. At human PD-L1 [2], the “BEI (binding efficiency index)” value is reported as 9.9, the “LE (ligand efficiency)” value came out at 0.19 kcal/mol/Heavy Atom, the “LELP” value turned out to be 22.2 and the “LLE (ligand lipophilicity efficiency)” value came out at 0.8. Further, on human PD-L1 [2] (HTRF binding curves), the “dose-response curve in HTRF assay” value is given as “No full dose response curves were observed”. Also, the IC50 at human PD-L1 [2] (read-out: IC50 (This Work)) was determined as 9880 ± 1390 nM.
`COc1nc(OCc2cccc(-c3ccccc3)c2C)ccc1CN([11CH3])CCNC(C)=O` [[^11C]2a]: the intact tracer in data set [5] is reported as ~ 90%.
Take “Atezolizumab: anti-PD-L1 antibody, positive control (MedChemExpress)”: the IC50 with human PD-L1 [1] (HTRF assay, vendor value; read-out: IC50 (Cisbio); cited from earlier work) was 3.84 nM; with human PD-L1 [2] (HTRF PD-1/PD-L1 binding assay, mean ± SD, three experiments, read-out: IC50 (This Work)), 4.07 ± 0.42 nM.
